PubChem BioAssay AID2060614 (Molecular Pharmacology Branch, DTP, NCI, 2025)
Where “and” joins values, the source holds several entries; their conditions need not be identical. Identical values can stand only once.

Tested on: 598228-144-R-J1-PDC complex spheroids, viability
Assay: Anticancer human tumor 598228-144-R-J1-PDC patient-derived serous endometrial adenocarcinoma cell line growth inhibition [CLK]
Settings: for viability, T/C: stronger effect = lower value
From the text: A high-throughput screen of multi-cell type tumor spheroids was designed to identify active combinations of […] and targeted small molecules. Complex spheroids include a stromal component modeled by human endothelial cells (HUVEC) and fibroblasts modeled by human mesenchymal stem cells (MSCs). The concentration ranges selected for each drug and investigational agent were based upon clinically achievable concentrations if the clinical Cmax of the agent was known.
Compounds. The drugs and investigational agents: cirtuvivint (SM08502; NSC835563), CC-671 (NSC850746), vemurafenib (NSC761431), tapotoclax (NSC804041), sotorasib (NSC818433), adagrasib (NSC831453), MRTX-1133 (NSC836407), BAY2416964 (NSC825713), copanlisib (NSC816437), inavolisib (NSC800729), abemaciclib (NSC768073), osimertinib (NSC779217), entinostat (NSC756642), eltanexor (KPT-8602, NSC794443), venetoclax (NSC766270), ceralasertib (NSC777638), bortezomib (NSC756655), olaparib (NSC753686), talazoparib (NSC767125), alisertib (NSC759677), peposertib (NSC802822), gemcitabine (NSC613327), 5-fluorouracil (NSC19893), SN-38 (NSC673596), oxaliplatin (NSC266046), paclitaxel (NSC125973), and doxorubicin (NSC123127), were obtained from the National Cancer Institute (NCI) Developmental Therapeutics Program Chemical Repository. The FDA-approved anticancer drug set is available from the Developmental Therapeutics Program at https://dtp.cancer.gov/organization/dscb/obtaining/available plates.htm. […] The stock solutions were prepared in dimethyl sulfoxide (DMSO, Sigma-Aldrich, St. Louis, MO, cat. D2650), except for the platinum complexes which were prepared in saline (Quality Biological, Gaithersburg, MD, cat. 114-055-101), at 800-fold the tested concentration and stored at -70 degrees C prior to their use. All drugs and investigational agents were tested over a range starting from a high concentration at or near the clinical Cmax and decreasing in half-log increments. If the clinical Cmax for an agent had not been determined, the highest concentration tested was 10 microM.
Cell Culture. All cells were maintained in an incubator at 37 degrees C and 5% CO2 with 95% humidity. The PDC lines were cultured according to standard operating procedures established by the NCI PDMR. Briefly, all PDCs were thawed and cultured in Matrigel-coated flasks prepared with a working solution of 1X Ham's F-12 nutrient mix, without supplementation (Invitrogen, Waltham, MA, cat. 11765054), 100 U/mL penicillin-streptomycin (Invitrogen, cat. 15140122), and 2.5% Matrigel (Corning Inc., Corning, NY, cat. 354248) for the first three passages. The 947758-054-R-J2-PDC line was cultured in 6B/Colon 1A media, which includes advanced DMEM/F-12 (Thermo Fisher Scientific, cat. 12634028), 10 mM HEPES (Thermo Fisher Scientific, cat. 15630080), 1X GlutaMAX supplement (Thermo Fisher Scientific, cat. 35050061), 0.1 mg/mL primocin (InvivoGen, cat. ant-pm-2), 10% defined fetal bovine serum, heat inactivated (HyClone Laboratories Inc., cat. SH30070.03HI), 1.25 mM N-Acetyl-L-cysteine (Sigma-Aldrich, cat. A9165), 10 mM nicotinamide (Sigma-Aldrich, cat. N0636), 1X B-27 supplement (Thermo Fisher Scientific, cat. 17504044), 1X N-2 supplement (Thermo Fisher Scientific, cat. 17502048), and 10 microM Y-27632 dihydrochloride (Tocris Bioscience, cat. 1254). The 876862-298-R-J1-PDC was cultured in 6E media, which includes all 6B/Colon 1A media components plus 50% L-WRN conditioned media (ATCC, cat. CRL-3276), 50 ng/mL recombinant human EGF recombinant protein (hEGF; Thermo Fisher Scientific, cat. PHG0311), 10 ng/mL recombinant human fibroblast growth factor 10 (hGFG-10; PeproTech, cat. 100-26), 1 ng/mL recombinant human fibroblast growth factor 2 (hFGF-2; PeproTech, cat. 100-18B), and 1 µM prostaglandin E2 (PGE2; Tocris, cat. 2296). The 227483-062-R1-J1-PDC line was cultured in Panc media, containing all 6E components except hFGF-2, with the addition of 500 nM SB-431542 (Selleckchem, cat. S1067) and 10 nM gastrin (Tocris, cat. 3006). […]
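Also: spheroids exposed to compounds for seven days before readout.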
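For viability, T/C in this document: 100% = DMSO vehicle control wells.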

COC1C=CCC(C)C(C)S(=O)(=O)NC(=O)c2ccc3c(c2)N(CC2CCC21)CC1(CCCc2cc(Cl)ccc21)CO3 (centres undefined) was tested, and the viability, T/C (compound 0.0316 µM) was 106% and 108%, the viability, T/C (compound 0.1 µM) was 80.2% and 85.4% and the viability, T/C (compound 0.316 µM) was 61% and 66.5%. For the same compound, the viability, T/C (compound 1 µM) was 55.6% and 58.4%, the viability, T/C (compound 3.16 µM) was 56.3% and 56.4% and the viability, T/C (compound 10 µM) was 34.4% and 20.1%. The IC50 (curve of compound) was 1870 nM and 1810 nM.
With Nc1ccn(C2OC(CO)C(O)C2(F)F)c(=O)n1 (centres undefined) + CN1CCN(c2cc(C(=O)Nc3cc4cc(-c5cnn(C)c5)ccc4cn3)ccn2)CC1 the IC50 (curve of first compound, second compound 0.0316 µM) was less than 31.6 nM, the IC50 (curve of first compound, second compound 0.1 µM) was less than 31.6 nM and the IC50 (curve of first compound, second compound 0.316 µM) was less than 31.6 nM. The IC50 (curve of first compound, second compound 1 µM) was less than 31.6 nM, the IC50 (curve of first compound, second compound 3.16 µM) was less than 31.6 nM and the IC50 (curve of first compound, second compound 10 µM) was less than 31.6 nM. It also gave a viability, T/C (second compound 0.0316 µM, first compound 0.0316 µM) of 42.6%, a viability, T/C (second compound 0.0316 µM, first compound 0.1 µM) of 23.5% and a viability, T/C (second compound 0.0316 µM, first compound 0.316 µM) of 24.3%. It also gave a viability, T/C (second compound 0.0316 µM, first compound 1 µM) of 21.2%, a viability, T/C (second compound 0.0316 µM, first compound 3.16 µM) of 23.4% and a viability, T/C (second compound 0.0316 µM, first compound 10 µM) of 28.3%. For the same compound, the viability, T/C (second compound 0.1 µM, first compound 0.0316 µM) was 46.5%, the viability, T/C (second compound 0.1 µM, first compound 0.1 µM) was 26.8% and the viability, T/C (second compound 0.1 µM, first compound 0.316 µM) was 25.4%. For the same compound, the viability, T/C (second compound 0.1 µM, first compound 1 µM) was 28.5%, the viability, T/C (second compound 0.1 µM, first compound 3.16 µM) was 28.5% and the viability, T/C (second compound 0.1 µM, first compound 10 µM) was 29.5%. For the same compound, the viability, T/C (second compound 0.316 µM, first compound 0.0316 µM) was 18%, the viability, T/C (second compound 0.316 µM, first compound 0.1 µM) was 16.9% and the viability, T/C (second compound 0.316 µM, first compound 0.316 µM) was 14%. It also gave a viability, T/C (second compound 0.316 µM, first compound 1 µM) of 15.4%, a viability, T/C (second compound 0.316 µM, first compound 3.16 µM) of 17% and a viability, T/C (second compound 0.316 µM, first compound 10 µM) of 16.9%. It also gave a viability, T/C (second compound 1 µM, first compound 0.0316 µM) of 3.9%, a viability, T/C (second compound 1 µM, first compound 0.1 µM) of 1.1% and a viability, T/C (second compound 1 µM, first compound 0.316 µM) of 2.41%. For the same compound, the viability, T/C (second compound 1 µM, first compound 1 µM) was 1.35%, the viability, T/C (second compound 1 µM, first compound 3.16 µM) was 2.84% and the viability, T/C (second compound 1 µM, first compound 10 µM) was 4.14%. The viability, T/C (second compound 3.16 µM, first compound 0.0316 µM) was 1.84%, the viability, T/C (second compound 3.16 µM, first compound 0.1 µM) was 4.4% and the viability, T/C (second compound 3.16 µM, first compound 0.316 µM) was 1.37%. For the same compound, the viability, T/C (second compound 3.16 µM, first compound 1 µM) was 1.5%, the viability, T/C (second compound 3.16 µM, first compound 3.16 µM) was 5.71% and the viability, T/C (second compound 3.16 µM, first compound 10 µM) was 5.03%. The viability, T/C (second compound 10 µM, first compound 0.0316 µM) was 0.74%, the viability, T/C (second compound 10 µM, first compound 0.1 µM) was 0.77% and the viability, T/C (second compound 10 µM, first compound 0.316 µM) was 2.69%. The viability, T/C (second compound 10 µM, first compound 1 µM) was 0.88%, the viability, T/C (second compound 10 µM, first compound 3.16 µM) was 5.39% and the viability, T/C (second compound 10 µM, first compound 10 µM) was 1.96%.
